Where a name gives a salt, the structure may show the parent alone.
Target: T1, NMDA receptor (Rattus norvegicus, UniProt P35439)
T1 construct: from tissue; host or cells: rat cortical slice
Test: antagonism of responses to NMDA, rat cortical slice preparation
Assay type: cell-based
Conditions: not given
Protocol: The effects of compounds of the invention on responses to the agonists NMDA, kainate and quisqualate were assessed using the rat cortical slice preparation as described by Wong et al., Proc. Natl. Acad. Sci. USA, 1986, 83, 7104. The apparent equilibrium constants (Kb) were calculated from the righthand shift in the agonist concentration-response curve.
Compound `O=C(O)c1cc(O)c2ccc(Br)cc2n1` [7-bromo-4-oxo-1,4-dihydroquinoline-2-carboxylic acid] has a Kb of under 100 µM.

Same assay, conditions: rat cortical slice; apparent equilibrium constant (Kb) calculated from righthand shift in the agonist concentration-response curve; read-out: NMDA antagonist activity at concentrations (Kb)
`O=C(NOCc1ccccc1)c1cc(=O)c2c(Cl)cc(Cl)cc2[nH]1` [5,7-Dichloro-4-oxo-1,4-dihydroquinoline-2-(O-benzyl)hydroxamic acid] gave a Kb of under 100 µM. Compound `O=C(NO)c1cc(=O)c2c(Cl)cc(Cl)cc2[nH]1` [5,7-Dichloro-4-oxo-1,4-dihydroquinoline-2-hydroxamic acid potassium salt.] has a Kb of under 100 µM. In the case of `Cc1cc(C)c2c(O)cc(C(=O)O)nc2c1` [5,7-Dimethyl-4-oxo-1,4-dihydroquinoline-2-carboxylic acid], the Kb is reported as under 100 µM. With `O=C(O)c1cc(O)c2c(Br)cc(Br)cc2n1` [5,7-dibromo-4-oxo-1,4-dihydroquinoline-2-carboxylic acid] the Kb was under 100 µM. In the case of `O=C(O)c1cc(O)c2c(Cl)cc(Cl)cc2n1` [5,7-dichloro-4-oxo-1,4-dihydroquinoline-2-carboxylic acid], the Kb is reported as under 100 µM. With `CCc1cc(Br)c2c(O)cc(C(=O)O)nc2c1` [5-Bromo-7-ethyl-4-oxo-1,4-dihydroquinoline-2-carboxylic acid] the Kb was under 100 µM. `Cc1cc(Br)c2c(O)cc(C(=O)O)nc2c1` [5-Bromo-7-methyl-4-oxo-1,4-dihydroquinoline-2-carboxylic acid] gave a Kb of under 100 µM. `CCc1cc(Cl)c2c(O)cc(C(=O)O)nc2c1` [5-Chloro-7-ethyl-4-oxo-1,4-dihydroquinoline-2-carboxylic acid] gave a Kb of under 100 µM. `O=C(O)c1cc(O)c2c(Cl)cc(I)cc2n1` [5-Chloro-7-iodo-4-oxo-1,4-dihydroquinoline-2-carboxylic acid] showed a Kb of under 100 µM. Compound `CCc1cccc2nc(C(=O)O)cc(O)c12` [5-Ethyl-4-oxo-1,4-dihydroquinoline-2-carboxylic acid] has a Kb of under 100 µM. `O=C(O)c1cc(=O)c2c(F)cccc2[nH]1` [5-Fluoro-4-oxo-1,4-dihydroquinoline-2-carboxylic acid] showed a Kb of under 100 µM. Compound `O=C(O)c1cc(O)c2c(I)cccc2n1` [5-Iodo-4-oxo-1,4-dihydroquinoline-2-carboxylic acid] has a Kb of under 100 µM. `Cc1cc(I)c2c(O)cc(C(=O)O)nc2c1` [5-Iodo-7-methyl-4-oxo-1,4-dihydroquinoline-2-carboxylic acid] gave a Kb of under 100 µM. `O=C(O)c1cc(=O)c2c(C(F)(F)F)cccc2[nH]1` [5-Trifluoromethyl-4-oxo-1,4-dihydroquinoline-2-carboxylic acid] gave a Kb of under 100 µM. Compound `O=C(O)c1cc(=O)c2c(Br)cccc2[nH]1` [5-bromo-4-oxo-1,4-dihydroquinoline-2-carboxylic acid] has a Kb of under 100 µM. In the case of `O=C(O)c1cc(O)c2c(Cl)cccc2n1` [5-chloro-4-oxo-1,4-dihydroquinoline-2-carboxylic acid], the Kb is reported as under 100 µM. In the case of `Cc1cccc2nc(C(=O)O)cc(O)c12` [5-methyl-4-oxo-1,4-dihydroquinoline-2-carboxylic acid], the Kb is reported as under 100 µM. With `O=C(O)c1cc(=O)c2cc(F)ccc2[nH]1` [6-fluoro-4-oxo-1,4-dihydroquinoline-2-carboxylic acid] the Kb was under 100 µM. Work on `CCc1cc(Br)cc2nc(C(=O)O)cc(O)c12` [7-Bromo-5-ethyl-4-oxo-1,4-dihydroquinoline-2-carboxylic acid] yielded a Kb of under 100 µM. For `Cc1cc(Br)cc2nc(C(=O)O)cc(O)c12` [7-Bromo-5-methyl-4-oxo-1,4-dihydroquinoline-2-carboxylic acid], the Kb was under 100 µM. Work on `CCc1cc(Cl)cc2nc(C(=O)O)cc(O)c12` [7-Chloro-5-ethyl-4-oxo-1,4-dihydroquinoline-2-carboxylic acid] yielded a Kb of under 100 µM. For `O=C(O)c1cc(O)c2c(I)cc(Cl)cc2n1` [7-Chloro-5-iodo-4-oxo-1,4-dihydroquinoline-2-carboxylic acid], the Kb was under 100 µM. `Cc1cc(I)cc2nc(C(=O)O)cc(O)c12` [7-Iodo-5-methyl-4-oxo-1,4-dihydroquinoline-2-carboxylic acid] showed a Kb of under 100 µM. `O=C(O)c1cc(O)c2ccc(Cl)cc2n1` [7-chloro-4-oxo-1,4-dihydroquinoline-2-carboxylic acid] showed a Kb of under 100 µM. `O=C(O)c1cc(O)c2ccc(F)cc2n1` [7-fluoro-4-oxo-1,4-dihydroquinoline-2-carboxylic acid] showed a Kb of under 100 µM. Work on `O=C(O)c1cc(O)c2ccc(I)cc2n1` [7-iodo-4-oxo-1,4-dihydroquinoline-2-carboxylic acid] yielded a Kb of under 100 µM. `Cc1ccc2c(O)cc(C(=O)O)nc2c1` [7-methyl-4-oxo-1,4-dihydroquinoline-2-carboxylic acid] gave a Kb of under 100 µM. In the case of `O=C(O)c1cc(=O)c2ccc([N+](=O)[O-])cc2[nH]1` [7-nitro-4-oxo-1,4-dihydroquinoline-2-carboxylic acid], the Kb is reported as under 100 µM.

System: excitatory amino acid receptors
Test: not given
Conditions: statement in words; R.H. Evans et al., Br. J. Pharmac., 1987, 91, 531; cited from earlier work
In the case of `O=C(O)c1cc(=O)c2ccccc2[nH]1` [Kynurenic acid, 4-oxo-1,4-dihydroquinoline-2-carboxylic acid], the “antagonist of excitatory amino acid receptors” value is given as “weak and non-selective antagonist”.

From patent EP0303387B1, “Kynurenic acid derivatives useful in the treatment of neurodegenerative disorders” (MERCK SHARP & DOHME LTD., priority 1987, dated 1989)
